Test results from patent US11572379B2, “Monomaleimide-functionalized platinum compounds for cancer therapy” (Medizinische Universität Wien, priority 2015, dated 2023).
Entries after “also recorded” stand apart in the source; their conditions may differ.

Experiments:
CT-26 colon cancer cells = assay: CT-26 colon cancer in vivo assay for anticancer activity; design: species or system Balb/c mice
Description: CT-26 colon cancer cells (5×10^5 in serum-free medium) were injected subcutaneously into the right flank of Balb/c mice. Animals were treated with the indicated oxaliplatin-releasing drugs at concentrations equimolar to 9 mg/kg oxaliplatin (i.v.; KP2156, KP2299 (compound 12), and KP2541 (compound 22) were dissolved in 0.9% NaCl solution, KP2260 (compound 11) was dissolved in 10% propylene glycol/0.9% NaCl and oxaliplatin was dissolved in 5% glucose solution according to the clinical protocol) twice a week (Mondays and Thursdays). Also in case of KP2552 (mixture of compounds 23 and 24, with the 4-methyl-1,2-cyclohexanediamine moiety) the solvent and application scheme of oxaliplatin was used. In case of cisplatin-releasing prodrugs KP2372 (compound 8) and KP2540 (compound 30), a dose equimolar to 3 mg/kg cisplatin was applied twice a week. For the carboplatin derivative KP2551 (compound 20) a dose equimolar to 12 mg/kg carboplatin was applied. The complexes were dissolved in 0.9% NaCl, while for the platinum(II) drugs 5% glucose solution was used according to the clinical protocol. Animals were controlled for distress development every day and tumor size was assessed regularly by caliper measurement. Tumor volume was calculated using the formula: (length×width^2).

[1] = system: L1210 murine leukemia cells; assay: L1210 leukemia in vivo assay (survival); settings: L1210 i.p., male DBA/2J×Balb/c SCID F1 mice
Description: L1210 murine leukemia cells (1×10^5) were injected intraperitoneally in a volume of 0.2 mL into female DBA/2J (cisplatin-releasing drugs) or male DBA/2J×Balb/c SCID F1 mice (oxaliplatin-releasing drugs). Compounds (see FIG. 4; dissolved as described above) were administered intraperitoneally at drug concentrations equimolar to 3 mg/kg cisplatin and 9 mg/kg oxaliplatin, respectively, on day 1, 5, and 9. Toxicity was monitored by daily observation of animals and registration of their body weight. Therapeutic efficacy of the drug candidate was monitored by recording the lengths of survival of experimental mice compared to untreated control animals.

Aqueous solubility = settings: compared to KP2260
B16 melanoma cells = assay: B16 melanoma in vivo assay for anticancer activity; settings: male C57/B6JRj mice, i.v. twice a week, equimolar to 9 mg/kg oxaliplatin
Description: B16 melanoma cells (1×10^5 in serum-free medium) were injected subcutaneously into the right flank of male C57/B6JRj mice. Animals were treated with KP2299 at concentrations equimolar to 9 mg/kg oxaliplatin (i.v.; dissolved in 0.9% NaCl solution) twice a week. Oxaliplatin was dissolved in 5% glucose solution according to the clinical protocol. Animals were controlled for distress development every day and tumor size was assessed regularly by caliper measurement. Tumor volume was calculated using the formula: (length×width^2).

[2] = RP-HPLC stability studies: hydrolytic stability in buffered aqueous solution at different pH values; format: physicochemical; settings: 0.5 mM, 20° C.; for stability (decrease of the compound peak area): over 24 h; for hydrolysis: 24 hours
Description: The stability of the compounds of the invention in aqueous solutions at different pH values was evaluated by incubation of compound 12 (KP2299) in different buffers and subsequent monitoring of the decrease of the compound peak area with the UV/VIS detector of a RP-HPLC system at 250 nm. Therefore, compound 12 was dissolved at a concentration of 0.5 mM in either 100 mM phosphate buffer pH=7.4, 100 mM sodium acetate buffer pH=6.3, 100 mM sodium acetate buffer pH=5.3 or 100 mM sodium acetate buffer pH=4.3 and incubated at 20° C. for 24 hours. All the measurements were carried out on an Ultimate 3000 RS system (Thermo Scientific, Waltham, Mass., USA) controlled by Chromeleon 7.2 SR4 software using an Acquity BEH C18 reversed phase column (50×3.0 mm, 1.7 μm particle size) from Waters (Milford, USA). Following conditions were used for the runs: flow rate 0.6 mL/min, sampler temperature: 20° C., column oven temperature 25° C., injection volume 10 μL, gradient 5-95% MeOH (and H2O (+0.1% HCOOH)) in 10 min. The compound was first measured directly after the preparation of the compound (after 2-3 min) and thereafter every 60 min. The decrease of the compound was calculated by the compound peak areas relatively to the peak area directly after the preparation of the compound. […] At pH=6.3 the hydrolysis is below 0.5%/h, whereas at pH=7.4 the hydrolysis is quite fast with ˜2.6%/h (see FIG. 5). Corresponding results can be obtained when the further compounds of the invention are tested.

[3] = Balb/c mice, twice a week, dose equimolar to 3 mg/kg cisplatin
[4] = male Balb/c mice, dose equimolar to 12 mg/kg carboplatin
[5] = Balb/c mice, i.v. twice a week, equimolar to 9 mg/kg oxaliplatin

In the case of `CC(=O)[O][Pt]([Cl])([Cl])[O]C(=O)NCCN1C(=O)C=CC1=O.N.N` [KP2372, (OC-6-44)-Acetatodiamminedichlorido[2-(2,5-dioxo-2,5-dihydro-1H-pyrrol-1-yl)ethylcarbamato]platinum(IV)], the “anticancer activity against CT-26 tumors (tumor growth)” value (from here on “anticancer activity … (tumor growth)”) (CT-26 colon cancer cells; [3]) is reported as “only marginally active; also recorded: widely inactive”.
With `CC(=O)[O][Pt]([Cl])([Cl])[O]C(=O)NCCCCCN1C(=O)C=CC1=O.N.N` [KP2540, (OC-6-44)-Acetatodiamminedichlorido[5-(2,5-dioxo-2,5-dihydro-1H-pyrrol-1-yl)pentylcarbamato]platinum(IV)] the “anticancer activity … (tumor growth)” value (CT-26 colon cancer cells; [3]) was “only marginally active; also recorded: widely inactive”.
For `CC(=O)[O][Pt]1([NH2])([NH2])([O]C(=O)NCCN2C(=O)C=CC2=O)[O]C(=O)C2(CCC2)C(=O)[O]1` [KP2551, (OC-6-34)-Acetatodiamminecyclobutane-1,1-dicarboxylato[2-(2,5-dioxo-2,5-dihydro-1H-pyrrol-1-yl)ethylcarbamato]platinum(IV)], the “anticancer activity … (tumor growth)” value (CT-26 colon cancer cells; [4]) was “distinctly more active than all other tested compounds; also recorded: very strong anticancer activity”.
In the case of `[NH2][Pt]1([NH2])[O]C(=O)C2(CCC2)C(=O)[O]1` [carboplatin, (SP-4-2)-Diamminecyclobutane-1,1-dicarboxylatoplatinum(II), reference compound], the “anticancer activity … (tumor growth)” value (CT-26 colon cancer cells; [4]) is reported as “no impact”.
For `O=C1[O][Pt]2([NH][C@@H]3CCCC[C@H]3[NH]2)[O]C1=O` [oxaliplatin, reference compound], the “treated animals with life prolongation” value ([1]; i.p. day 1, 5, 9, 9 mg/kg oxaliplatin) was roughly 50%.
With “(OC-6-34)-Acetato[(1R,2R)-cyclohexane-1,2-diamine]oxalato[2-(2,5-dioxo-2,5-dihydro-1H-pyrrol-1-yl)ethylcarbamato]platinum(IV) [KP2299]” the “anti-leukemic activity (survival)” value ([1]; i.p. day 1, 5, 9, equimolar to 9 mg/kg oxaliplatin) was “distinct anti-leukemic activity”, the aqueous solubility (Aqueous solubility) was “highly increased” and the “anticancer activity against B16 tumors” value (B16 melanoma cells) was “exceptionally increased anticancer activity”. The “stability (decrease of the compound peak area)” value ([2]; pH=4.3, 100 mM sodium acetate buffer) was “stable”, the “stability (decrease of the compound peak area)” value ([2]; pH=5.3, 100 mM sodium acetate buffer) was “stable” and the hydrolysis ([2]; pH=6.3, 100 mM sodium acetate buffer) was “below 0.5 %/h”. For the same molecule, the hydrolysis ([2]; pH=7.4, 100 mM phosphate buffer) was roughly 2.6 %/h, the “anticancer activity … (tumor growth)” value (CT-26 colon cancer cells; [5]) was “distinctly more active than all other tested compounds; also recorded: distinctly higher anticancer activity; also recorded: exceptionally increased anticancer activity” and the complete remission (CT-26 colon cancer cells; CT-26, female mice, equimolar to 9 mg/kg oxaliplatin i.v. twice a week) was 3 out of 4.
In the case of “(OC-6-34)-[(1R,2R)-Cyclohexane-1,2-diamine]methoxidooxalato[2-(2,5-dioxo-2,5-dihydro-1H-pyrrol-1-yl)ethylcarbamato]platinum(IV) [KP2260]”, the “anticancer activity … (tumor growth)” value (CT-26 colon cancer cells; [5]) is reported as “far less or at least later active”.
With “(OC-6-44)-Acetato[(1R,2R)-cyclohexane-1,2-diamine]oxalato[4-(2,5-dioxo-2,5-dihydro-1H-pyrrol-1-yl)butanoato]platinum(IV) [KP2541]” the “anticancer activity … (tumor growth)” value (CT-26 colon cancer cells; [5]) was “far less or at least later active”.
